{"source": "paper PMC5395648", "about": "“Targeted Modification of a Novel Amphibian Antimicrobial Peptide from Phyllomedusa tarsius to Enhance Its Activity against MRSA and Microbial Biofilm” (Frontiers in Microbiology, 2017)", "key": {"horse erythrocytes": {"test_system": "horse erythrocytes", "format": "cell-based", "experimental": "The haemolysis assay was performed by mixing the peptides with mammalian erythrocytes obtained from fresh defibrinated horse blood. An appropriate volume of horse blood was transferred and washed with PBS until the supernatant was clear. A series of peptide solutions were incubated with a 2% suspension of red blood cells at final concentrations of 1-512 μg/ml at 37°C for 2 h. For positive and negative controls, the red blood cells were incubated with 1% Triton-X 100 and PBS, respectively. After incubation, 200 μl of the supernatant from each sample was transferred to a microtiter plate and the absorbance at 550 nm was measured with a Synergy HT plate reader (BioTek, USA). The therapeutic index (TI), a parameter recommended by the US FDA to indicate safety/efficacy usage, was calculated as the peptide concentration causing 50% haemolysis of the red bloods cells (HC50) divided by the geometric mean of the peptide MICs against the relevant bacteria (GM). […] In the former case, the MIC that was used when no inhibition was observed was the 2-fold maximum tested value ([…] al., [2016]). Data were analyzed to obtain the mean and standard error of responses. The statistical analyses were performed by one-way ANOVA and the statistical significance of the differences was indicated as ^*p < 0.05, ^**p < 0.01, ^***p < 0.001, and ^****p < 0.0001. The dose-response curves were constructed using a “best-fit” algorithm and HC50 was calculated through the data analysis package provided in GraphPad Prism 6 (GraphPad Software, USA)."}, "[1]": {"test_system": "Staphylococcus aureus (NCTC10788)", "method": "(§1) The antimicrobial activity of each synthetic peptide was evaluated using the broth dilution method (Wiegand et al., [2008]). In brief, different concentrations of the peptides were incubated with microorganisms under defined conditions. Six different microorganisms were used in the assay: the Gram-positive bacteria Staphylococcus aureus (NCTC10788), Enterococcus faecalis (NCTC12697), and methicillin-resistant Staphylococcus aureus (MRSA) (NCTC 12493); the Gram-negative bacteria Escherichia coli (NCTC 10418) and Pseudomonas aeruginosa (ATCC 27853); and the yeast Candida albicans (NCYC 1467). Each microorganism was cultured in fresh Mueller-Hinton broth (MHB) overnight and then subcultured in fresh medium to a cell density equivalent to 10^8 colony-forming units (CFU)/ml. The microbial suspension was diluted with fresh MHB to a concentration of 1 × 10^5 CFU/ml. Peptide samples were dissolved in the culture medium MHB to prepare a 100-fold stock solutions and then 1 μl of each peptide solution was mixed with 99 μl of diluted bacterial culture to get a final concentration range from 1 to 512 μg/ml in two-fold dilution. […] From these wells, 10 μl of the overnight culture were added to a Mueller-Hinton agar (MHA) plate and cultured at 37°C for 16–20 h."}, "[2]": {"test_system": "methicillin-resistant Staphylococcus aureus (MRSA) (NCTC 12493)", "method": "as §1"}, "[3]": {"test_system": "Escherichia coli (NCTC 10418)", "method": "as §1"}, "[4]": {"test_system": "Candida albicans (NCYC 1467)", "method": "as §1"}, "S. aureus biofilm": {"test_system": "S. aureus biofilm", "format": "cell-based, Staphylococcus aureus", "details": "for MBEC: 48 h", "experimental": "MBIC and MBEC assays were performed using microtiter plates based on a modified 2,3,5-triphenyl tetrazolium chloride (TTC) method (Sabaeifard et al., [2014]). Overnight cultures were washed with sterile phosphate-buffered saline (PBS) and diluted with fresh broth to 10^7 CFU/ml. […] For the MBEC assay, 200 μl of inoculum was placed in a flat-bottomed microtiter plate for 48 h to form mature biofilms. Following sufficient growth time, mature biofilms were washed twice to remove the planktonic cells and incubated with a series of peptide concentrations (1–512 μg/ml) at 37°C for 20–24 h. After sufficient growth, plates were washed twice with sterile PBS followed by the addition of fresh medium (200 μl per well) and stained with 50 μl 1% TTC (g/v) solution for 5 h. After incubation, 200 μl of the supernatant from each well were transferred to a new plate and their absorbance values were measured at 470 nm using a Synergy HT plate reader (BioTek, USA)."}, "[5]": {"test_system": "Pseudomonas aeruginosa (ATCC 27853)", "method": "as §1"}, "[6]": {"test_system": "Enterococcus faecalis (NCTC12697)", "method": "as §1"}}, "note": "Non-standard residues stand in square brackets, D forms with d. Residues, ends and D or L forms follow the SMILES beside them. No end group written: not given here.", "data": [{"compound": "CC[C@H](C)[C@H](NC(=O)[C@H](C)NC(=O)[C@H](CCCCN)NC(=O)[C@@H](NC(=O)[C@H](C)NC(=O)[C@@H](NC(=O)[C@@H]1CCCN1C(=O)[C@@H](NC(=O)[C@H](CCSC)NC(=O)CNC(=O)[C@@H](CC(C)C)NC(=O)[C@@H](N)CC(C)C)[C@@H](C)CC)C(C)C)[C@@H](C)CC)C(=O)N[C@@H](CO)C(=O)N[C@@H](C)C(=O)N[C@@H](CC(C)C)C(=O)N[C@@H](CO)C(=O)N[C@@H](CCCCN)C(=O)N[C@@H](CC(C)C)C(N)=O", "note": "[medusin-PT1a] (H-L[dL]GMIPVAIKAISALSKL-NH2)", "values": [{"measurement": "HC50", "setting": "horse erythrocytes", "result": 226.7, "unit": "µg/mL"}, {"measurement": "MBC", "setting": "[1]", "result": 16, "unit": "µg/mL"}, {"measurement": "MIC", "setting": "[1]", "result": 8, "unit": "µg/mL"}, {"measurement": "MBC", "setting": "[2]", "result": 32, "unit": "µg/mL"}, {"measurement": "MIC", "setting": "[2]", "result": 16, "unit": "µg/mL"}, {"measurement": "MBC", "setting": "[3]", "result": "128/128 μg/ml"}, {"measurement": "MIC", "setting": "[3]", "result": "128/128 μg/ml"}, {"measurement": "MBC", "setting": "[4]", "result": "8/8 μg/ml"}, {"measurement": "MIC", "setting": "[4]", "result": "8/8 μg/ml"}, {"measurement": "MBIC", "setting": "S. aureus biofilm", "result": 32, "unit": "µg/mL"}, {"measurement": "MBEC", "setting": "S. aureus biofilm", "result": 64, "unit": "µg/mL"}, {"measurement": "MBC", "setting": "[5]", "result": "> 512", "unit": "µg/mL"}, {"measurement": "MIC", "setting": "[5]", "result": 128, "unit": "µg/mL"}, {"measurement": "MBC", "setting": "[6]", "result": "32/32 μg/ml"}, {"measurement": "MIC", "setting": "[6]", "result": "32/32 μg/ml"}]}, {"compound": "LLGMIKVAITAISALSKL-NH2 [medusin-PT2]", "values": [{"measurement": "HC50", "setting": "horse erythrocytes", "result": 93.83, "unit": "µg/mL"}, {"measurement": "MBC", "setting": "[1]", "result": 16, "unit": "µg/mL"}, {"measurement": "MIC", "setting": "[1]", "result": 8, "unit": "µg/mL"}, {"measurement": "MBC", "setting": "[2]", "result": "32/32 μg/ml"}, {"measurement": "MIC", "setting": "[2]", "result": "32/32 μg/ml"}, {"measurement": "MBC", "setting": "[4]", "result": "8/8 μg/ml"}, {"measurement": "MIC", "setting": "[4]", "result": "8/8 μg/ml"}, {"measurement": "MBIC", "setting": "S. aureus biofilm", "result": 32, "unit": "µg/mL"}, {"measurement": "MBEC", "setting": "S. aureus biofilm", "result": 256, "unit": "µg/mL"}, {"measurement": "MBC", "setting": "[5]", "result": ">512/>512 μg/ml"}, {"measurement": "MBC", "setting": "[6]", "result": "32/32 μg/ml"}, {"measurement": "MIC", "setting": "[6]", "result": "32/32 μg/ml"}]}, {"compound": "LLGMIPVAIKAISALSKL-NH2 [medusin-PT1]", "values": [{"measurement": "HC50", "setting": "horse erythrocytes", "result": 102.2, "unit": "µg/mL"}, {"measurement": "MIC after serum degradation 4 h", "setting": "E. coli", "result": "> 512", "unit": "µg/mL"}, {"measurement": "MBC", "setting": "[1]", "result": 16, "unit": "µg/mL"}, {"measurement": "MIC", "setting": "[1]", "result": 8, "unit": "µg/mL"}, {"measurement": "MBC", "setting": "[2]", "result": 32, "unit": "µg/mL"}, {"measurement": "MIC", "setting": "[2]", "result": 16, "unit": "µg/mL"}, {"measurement": "MBC", "setting": "[4]", "result": "16/16 μg/ml"}, {"measurement": "MIC", "setting": "[4]", "result": "16/16 μg/ml"}, {"measurement": "MBIC", "setting": "S. aureus biofilm", "result": 32, "unit": "µg/mL"}, {"measurement": "MBEC", "setting": "S. aureus biofilm", "result": 128, "unit": "µg/mL"}, {"measurement": "MBC", "setting": "[5]", "result": ">512/>512 μg/ml"}, {"measurement": "MIC", "setting": "[5]", "result": ">512/>512 μg/ml"}, {"measurement": "MBC", "setting": "[6]", "result": "32/32 μg/ml"}, {"measurement": "MIC", "setting": "[6]", "result": "32/32 μg/ml"}]}, {"compound": "LLGMIPVAITAISALSKL-NH2 [medusin-PT]", "values": [{"measurement": "HC50", "setting": "horse erythrocytes", "result": "1.814e+06", "unit": "µg/mL"}, {"measurement": "haemolytic activity (in words)", "setting": "horse erythrocytes", "result": "extremely low haemolytic activity"}, {"measurement": "MBC", "setting": "[1]", "result": 128, "unit": "µg/mL"}, {"measurement": "MIC", "setting": "[1]", "result": 64, "unit": "µg/mL"}, {"measurement": "MBC", "setting": "[2]", "result": ">512/>512 μg/ml"}, {"measurement": "MIC", "setting": "[2]", "result": ">512/>512 μg/ml"}, {"measurement": "MBC", "setting": "[3]", "result": ">512/>512 μg/ml"}, {"measurement": "MBC", "setting": "[4]", "result": ">512/>512 μg/ml"}, {"measurement": "MIC", "setting": "[4]", "result": ">512/>512 μg/ml"}, {"measurement": "MBIC", "setting": "S. aureus biofilm", "result": 512, "unit": "µg/mL"}, {"measurement": "MBEC", "setting": "S. aureus biofilm", "result": ">512", "unit": "µg/mL"}, {"measurement": "MBC", "setting": "[5]", "result": ">512/>512 μg/ml"}, {"measurement": "MBC", "setting": "[6]", "result": ">512/>512 μg/ml"}, {"measurement": "MIC", "setting": "[6]", "result": ">512/>512 μg/ml"}]}]}
